The subject of the experiment is M. tuberculosis H37Rv growth inhibition with meropenem. Nature of the experiment: dose response, H37Rv, with and without meropenem (AID 434987).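 Further: growth over 7 days at 37 °C before Alamar Blue read on day 9.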
[1] abbreviates: M. tuberculosis H37Rv growth inhibition, measured here: IC50 without meropenem.
Setting [2] is: M. tuberculosis H37Rv growth inhibition, measured here: IC90 without meropenem.
[3] abbreviates: measured here: IC90 with meropenem.

Our source for the IC50 and IC90 values is PubChem BioAssay AID434987 (Southern Research Specialized Biocontainment Screening …, 2010).

pIC50: −log10 of the molar value. Active and inactive are the calls of the source. How the calls were made is not given here.

Broadly, the pIC50 is −log10 of the IC50, conventionally taken in molar units. In general, IC90 refers to the point of the concentration-response curve where the effect stands at 90%. Low readings indicate greater potency, high ones weaker potency. For orientation: IC50 means the concentration needed to halve the response being measured.

As for `O=C(/C=C/c1ccccc1[N+](=O)[O-])c1ccc(F)cc1`, the negative logarithm of the IC50 (pIC50) is 4.70. The molecule further had a pIC50 under setting [1] of 4.03. The molecule also gave a concentration for an effect of 90% (IC90) under setting [2] above 100 µM. This molecule displayed an IC90 under setting [3] above 100 µM.
As to `CCCOc1ccc(C(=O)CCN2CCCCC2)cc1`, the pIC50 is 4.87. The molecule also gave a pIC50 under setting [1] of 4.27. In addition, under setting [2], the concentration for an effect of 90% (IC90) is 77.1 µM. This molecule also yielded a concentration for an effect of 90% (IC90) under setting [3] of 36.4 µM.
On to `NS(=O)(=O)c1cccnc1Nc1c(Cl)cccc1Cl`, for which the IC50 is > 100 µM (inactive). Further, the negative logarithm of the IC50 (pIC50) under setting [1] is below 4.00. For the same molecule, the IC90 under setting [2] is above 100 µM. The molecule also had an IC90 under setting [3] above 100 µM.
`COc1cc(/C=C/c2ccc3cccc([N+](=O)[O-])c3n2)ccc1OCC(=O)O`: the pIC50 is 5.21. Further, the negative logarithm of the IC50 (pIC50) under setting [1] is 4.60. Besides, the 90% effect concentration (IC90) under setting [2] is 62.5 µM. This molecule displayed an IC90 under setting [3] of 12 µM.
Consider `CCc1ccc(NC(=O)c2c(Cl)nc(C)c(Cl)c2C)cc1`, for which the negative logarithm of the IC50 (pIC50) was 5.15. The same molecule gave a negative-log IC50 (pIC50) under setting [1] below 4.00. The IC90 under setting [2] is above 100 µM. Under setting [3], the IC90 is above 100 µM.
`C=C(C)COc1ccc2c(C)c(C)c(=O)oc2c1OCC(=C)C`: the IC50 is 79.2 µM (inactive). Besides, the negative-log IC50 (pIC50) under setting [1] is below 4.00. Besides, the concentration for an effect of 90% (IC90) under setting [2] is above 100 µM. The IC90 under setting [3] was above 100 µM.
Regarding `CCN(Cc1ccncc1)C(=O)C(CO)c1ccccc1` (stereo not drawn), the IC50 was > 100 µM (inactive). Besides, under setting [1], the negative logarithm of the IC50 (pIC50) was below 4.00. Also, under setting [2], the IC90 is above 100 µM. For the same molecule, the 90% effect concentration (IC90) under setting [3] is above 100 µM.
For `COC(=O)c1sc(-c2ccc(Cl)cc2)cc1NC(=O)COCC(=O)O`, the pIC50 was 4.82. Under setting [1], this molecule gave a pIC50 of 4.40. Moreover, the IC90 under setting [2] is above 100 µM. This molecule showed an IC90 under setting [3] of 44.8 µM.
As for `Cc1nc(S/C(=C\c2ccc(OCc3ccccc3Cl)cc2)C(=O)O)n[nH]1`, the IC50 is > 100 µM (inactive). Also, under setting [1], the negative-log IC50 (pIC50) was below 4.00. The molecule further displayed a 90% effect concentration (IC90) under setting [2] above 100 µM. The molecule further displayed an IC90 under setting [3] above 100 µM.
`O=C(N/N=C/c1c(O)n(Cc2ccc(F)cc2)c(=S)[nH]c1=O)c1ccncc1`: the IC50 is 7.75 µM (inactive). Besides, the pIC50 under setting [1] is 4.94. The IC90 under setting [2] was 12.9 µM. Besides, under setting [3], the IC90 turned out to be 9.8 µM.
With `CC(=O)c1ccc(OC(=O)N(c2ccccc2)c2ccccc2)cc1`, the pIC50 is 5.38. The pIC50 under setting [1] was 4.53. The concentration for an effect of 90% (IC90) under setting [2] is above 100 µM. This molecule returned an IC90 under setting [3] of 32.9 µM.
Regarding `Cc1nc(SCC(=O)NCc2ccco2)c2c3c(sc2n1)CCCC3`, the IC50 is > 100 µM (inactive). Also, under setting [1], the negative-log IC50 (pIC50) was below 4.00. This molecule also returned an IC90 under setting [2] above 100 µM. This molecule displayed a 90% effect concentration (IC90) under setting [3] above 100 µM.
As to `COc1ccc2c(c1)c(C(C)=O)c(C)n2-c1ccccc1`, the pIC50 was 6.47. In addition, the negative-log IC50 (pIC50) under setting [1] is below 4.00. For the same molecule, the IC90 under setting [2] was above 100 µM. Also, under setting [3], the 90% effect concentration (IC90) stood at 6.92 µM.
For `Cc1cc(/C=N/NC(=O)CC#N)c(C)n1-c1ccc([N+](=O)[O-])cc1`, in that order: 4.99, below 4.00, above 100 µM and above 100 µM.
For `CCOC(=O)c1sc(NC(=O)CN2CCN(c3ccc(OC)cc3)CC2)nc1C`, the IC50 is 68.2 µM (inactive). The molecule also showed a pIC50 under setting [1] of 4.00. In addition, the concentration for an effect of 90% (IC90) under setting [2] is above 100 µM. The molecule also gave an IC90 under setting [3] above 100 µM.
Turning to `CCCc1cc(NC(=O)COC(=O)c2nccnc2N)n(-c2ccccc2)n1`, the IC50 was 49.3 µM (inactive). Under setting [1], this molecule had a pIC50 of 4.16. Besides, the IC90 under setting [2] is above 100 µM. The same molecule returned a 90% effect concentration (IC90) under setting [3] of 50.8 µM.
For `Cc1cn([C@@H](CCCCNC(=O)OC(C)(C)C)C(=O)NCCCCCCCCCCC(=O)N2CCN(C(=O)OC(C)(C)C)CC2)nn1`, in that order: 97.7 µM (inactive), below 4.00, above 100 µM and above 100 µM.
Turning to `CCOc1cc(/C=N\Nc2ccc([N+](=O)[O-])cc2)ccc1OCC(=O)Nc1ccc(C)c(C)c1`, the pIC50 was 5.22. This molecule also showed a negative logarithm of the IC50 (pIC50) under setting [1] below 4.00. The same molecule yielded an IC90 under setting [2] above 100 µM. Under setting [3], this molecule returned a 90% effect concentration (IC90) above 12.5 µM.
As to `COc1ccc(Cn2c(C)nc3c(c(=O)c4ccccc4n3C)c2=O)cc1`, the IC50 was > 100 µM (inactive). Under setting [1], this molecule had a negative-log IC50 (pIC50) below 4.00. In addition, under setting [2], the IC90 was above 100 µM. Under setting [3], this molecule gave an IC90 above 100 µM.
`O=C(COc1ccccc1)NNC(=O)c1cc2ccccc2oc1=O`: the negative logarithm of the IC50 (pIC50) was 4.81. This molecule also showed a negative-log IC50 (pIC50) under setting [1] below 4.00. Also, under setting [2], the concentration for an effect of 90% (IC90) is above 100 µM. The IC90 under setting [3] is above 100 µM.
As for `CNC(=S)N/N=C(\C)c1ccc(Cl)c(Cl)c1`, the IC50 is > 100 µM (inactive). Under setting [1], this molecule had a pIC50 below 4.00. The molecule further showed an IC90 under setting [2] above 100 µM. The molecule further had an IC90 under setting [3] above 100 µM.
As for `C=C(C)COc1ccc(-c2nc(N)ncc2Oc2ccc(OC)cc2)c(O)c1`, the IC50 is > 100 µM (inactive). Under setting [1], this molecule had a pIC50 below 4.00. Under setting [2], this molecule showed an IC90 above 100 µM. Under setting [3], this molecule showed an IC90 above 100 µM.
